Reference: the OPERA property sets (Mansouri et al. 2018)
In brackets after ≈: the same amount, converted by molar mass.

settings: not given

| SMILES | logP |
| --- | --- |
| O=C(Nc1ccccc1)NC1CCCC1 | 2.65 |
| CON(C)C(=O)Nc1ccc(Br)cc1 | 2.38 |
| CCCOC(=O)Nc1ccccc1 | 2.8 |
| NC(=O)Nc1cccc(C(F)(F)F)c1 | 2.31 |
| COc1cccc(NC(=O)N(C)C)c1 | 1.73 |
| CCCCOC(=O)Nc1ccccc1 | 3.3 |
| COc1ccc(NC(=O)N(C)C)cc1 | 0.83 |
| O=[N+]([O-])c1ccc(Br)c(Cl)c1 | 3.25 |

Further lines, results first:

| logP | SMILES |
| --- | --- |
| 1.59 | Cc1cc(NC(N)=O)ccc1F |
| 2.18 | CNC(=O)Nc1cccc(Cl)c1 |
| 1.37 | COc1ccc(NC(N)=O)cc1Cl |
| 2.61 | CNC(=O)Nc1ccc(C)c(Cl)c1 |
| 2.94 | CNC(=O)Nc1ccc(Cl)c(Cl)c1 |

same assay, conditions: 25 °C

| solubility [mM] | SMILES |
| --- | --- |
| 8.11 (≈ 1210 µg/mL) | CC(=O)Nc1cccc(C)c1 |
| 39.8 (≈ 6750 µg/mL) | CC(=O)Nc1ccccc1Cl |
